Measurements taken from patent US5658885A, “Amidino and guanidino substituted boronic acid inhibitors of trypsin-like enzymes” (The DuPont Merck Pharmaceutical Company, priority 1994, dated 1997).
Structures can show the parent of a compound that is named as a salt.

Assays:
human thrombin = molecular target: T1, human thrombin (Homo sapiens, UniProt P00734); assay: Inhibition of thrombin hydrolysis of chromogenic substrate S2238 (Ki); assay type: biochemical; conditions: S2238, pH 7.5
T1 construct: 0.2-0.5 nM human thrombin or human factor Xa; purchased Enzyme Research Laboratories, South Bend, Ind
Description: (§1) The effectiveness of compounds of the present invention as inhibitors of blood coagulation proteases was determined using purified human proteases and synthetic substrates following procedures similar to those described in Kettner et al. (1990).
(§2) For these assays, the rate of enzymatic (thrombin, Factor Xa, and Factor VIIa) hydrolysis of chromogenic substrates (S2238 (H-D-Phe-Pip-Arg-pNA), S2222, and S2288, respectively; Kabi Pharmacia, Franklin, Ohio) was measured both in the absence and presence of compounds of the present invention. […] A decrease in the rate of absorbance change at 405 nm in the presence of inhibitor is indicative of enzyme inhibition. The results of this assay are expressed as inhibitory constant, Ki.
(§3) Thrombin and Xa determinations were made in 0.10M sodium phosphate buffer, pH 7.5, containing 0.20M NaCl, and 0.5% PEG 8000. VIIa determinations were made in 0.05M tris buffer, pH 7.6, containing 0.10M NaCl, 4 mM CaCl2, and 0.1% bovine serum albumin.
(§4) Reactions were allowed to go for 30 minutes and the velocities (rate of absorbance change vs time) were measured in the time frame of 25-30 minutes. The following relationship was used to calculate Ki values. [formula] where: vo is the velocity of the control in the absence of inhibitor;
(§5) vs is the velocity in the presence of inhibitor;
(§6) I is the concentration of inhibitor;
(§7) Ki is the dissociation constant of the enzyme: inhibitor complex;
(§8) S is the concentration of substrate;
(§9) Km is the Michaelis constant.

human factor VIIa = molecular target: T2, human factor VIIa (Homo sapiens, UniProt P08709); assay: Inhibition of Factor VIIa hydrolysis of chromogenic substrate S2288 (Ki); assay type: biochemical; conditions: S2288, pH 7.6
T2 construct: 50 nM human factor VIIa (BiosPacific, Emeryville, Calif.); purchased BiosPacific, Emeryville, Calif
T2 sequence (P08709 213-466 limits assumed): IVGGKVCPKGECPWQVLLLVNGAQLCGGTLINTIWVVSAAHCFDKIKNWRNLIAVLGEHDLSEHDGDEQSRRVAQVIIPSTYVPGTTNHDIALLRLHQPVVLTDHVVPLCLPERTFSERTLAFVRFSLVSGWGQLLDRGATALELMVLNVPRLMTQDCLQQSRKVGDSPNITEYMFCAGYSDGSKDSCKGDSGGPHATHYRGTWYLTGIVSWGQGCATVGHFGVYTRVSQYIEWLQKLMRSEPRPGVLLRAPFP
T2 sequence (P08709 61-212 limits assumed): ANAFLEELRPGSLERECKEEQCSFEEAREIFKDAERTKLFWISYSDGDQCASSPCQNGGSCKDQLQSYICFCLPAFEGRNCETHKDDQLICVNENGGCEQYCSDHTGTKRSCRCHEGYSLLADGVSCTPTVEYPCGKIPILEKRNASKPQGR
Description: as §1, §2, §3, §4, §5, §6, §7, §8, §9

human factor Xa = molecular target: T3, human factor Xa (Homo sapiens, UniProt P00742); assay: Inhibition of Factor Xa hydrolysis of chromogenic substrate S2222 (Ki); assay type: biochemical; conditions: S2222, pH 7.5
T3 construct: 0.2-0.5 nM human thrombin or human factor Xa; purchased Enzyme Research Laboratories, South Bend, Ind
Description: as §1, §2, §3, §4, §5, §6, §7, §8, §9

thrombin clotting times = assay: Thrombin clotting time, concentration for 2-fold increase; assay type: biochemical; conditions: 2-fold increase of thrombin clotting time
[1] = tested on: activated partial thromboplastin time; assay: Anticoagulant effect in vivo: prolongation of activated partial thromboplastin time of blood samples after dosing; set-up: species or system conscious dogs or anesthetized rats; conditions: 0.5 to 10 mg/kg, dogs or rats
Description: Arterial or venous blood was withdrawn by syringe and mixed with 1/10 volume 3.2% sodium citrate. Plasma was obtained after centrifugation and a standard clinical activated partial thromboplastin time (APTT reagent, Sigma Chemical Co., St. Louis, Mo.) determined at 37° C. in a fibrometer.

T3 sequence (P00742 235-488 limits assumed): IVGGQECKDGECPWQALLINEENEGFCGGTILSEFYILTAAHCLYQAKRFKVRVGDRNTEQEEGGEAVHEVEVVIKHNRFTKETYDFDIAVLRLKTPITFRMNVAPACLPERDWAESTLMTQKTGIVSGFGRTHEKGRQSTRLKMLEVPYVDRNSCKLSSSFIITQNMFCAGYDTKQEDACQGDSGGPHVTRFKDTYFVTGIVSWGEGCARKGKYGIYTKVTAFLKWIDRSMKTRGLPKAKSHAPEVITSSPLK
T3 sequence (P00742 41-179 limits assumed): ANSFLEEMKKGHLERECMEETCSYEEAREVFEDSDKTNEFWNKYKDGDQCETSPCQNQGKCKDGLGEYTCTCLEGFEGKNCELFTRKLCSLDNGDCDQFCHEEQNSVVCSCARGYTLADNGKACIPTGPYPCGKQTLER

Row | Ki (human thrombin) [nM] | Ki (human factor VIIa) [nM] | Ki (human factor Xa) [nM] | Compound | concentration that increased thrombin clotting times 2-fold (thrombin clotting times) [µM] | anticoagulant response (at least doubling of activated partial thromboplastin time vs. pre-dose) ([1]; oral dosing) | anticoagulant response (at least doubling of activated partial thromboplastin time vs. pre-dose) ([1]; i.v. dosing)
1 | < 500 | < 500 | < 50000 | Boc--(D)Phe--Pro--boroGly[(CH2)3 --ONH2 ]--OH.HCl [Example 102] |  |  | 
2 | < 500 |  |  | H--(D)Phe--Pro--boroOrn(CH=NH)]--OH.0.65 HCl.0.35 BSA [Example 9] | 0.10 |  | 
3 | < 500 | < 500 | < 500 | Boc--(D)Phe--Pro--boroOrn(CH=NH)]--OH.0.6 HCl.0.4 BSA [Example 7] | < 0.075 |  | 
4 | < 500 | < 500 | < 500 | CC(C)(C)OC(=O)N[C@H](Cc1ccccn1)C(=O)N1CCCC1C(=O)NC(Cc1cccc(C#N)c1)B1OC2CC3CC(C3(C)C)C2(C)O1 (stereo partly drawn) [Example 34, Boc--(D)2-Pyridylalanine-Pro--boroPhe(m-CN)--C10 H16] |  |  | 
5 | < 500 | < 50000 | < 50000 | COCCCC(NC(=O)[C@@H]1CCCN1C(=O)[C@@H](Cc1ccccc1)N(C)C)B1OC2CC3CC(C3(C)C)C2(C)O1 (stereo partly drawn) [Example 141, N,N-dimethyl-(D)--Phe--Pro--boroGly[(CH2)3 --OCH3]--C10 H16] |  |  | 
6 | < 500 | < 50000 | < 50000 | CC(=O)NCCCCC(NC(=O)C1CCCN1C(=O)CCc1ccccc1)B1OC2CC3CC(C3(C)C)C2(C)O1 (stereo not drawn) [Example 136, Hydrocinnamoyl-ProboroGly[(CH2)4 --NH--Acetyl]C10 H16] |  |  | 
7 | < 500 | < 500 | < 500 | CC(C)(C)OC(=O)NC(Cc1cccs1)C(=O)N1CCCC1C(=O)NC(Cc1cccc(C#N)c1)B1OC2CC3CC(C3(C)C)C2(C)O1 (stereo not drawn) [Example 36, Boc--(D)2-Thienylalanine-Pro--boroPhe(m-CN)--C10 H16] |  |  | 
8 | < 500 |  |  | CS(=O)(=O)N[C@H](Cc1ccc(F)cc1)C(=O)N1CCC[C@H]1C(=O)N[C@@H](CCCNC=N)B(O)O.Cl [Example 60, Ms--(D)Phe(4-fluoro)-Pro--boroOrn(CH=NH)--OH.HCl] |  | effective | 
9 | < 500 | < 500 | < 500 | Ac--(D)Phe--Pro--boroOrn(CH=NH)]--OH.HCl [Example 4] |  | effective | effective
10 | < 500 | < 500 | < 50000 | CC1(C)C2CC3OB(C(Cc4cccc(C#N)c4)NC(=O)[C@@H]4CCCN4C(=O)[C@H](N)Cc4cccs4)OC3(C)C1C2 (stereo partly drawn) [Example 38, H--(D)2-Thienylalanine-Pro--boroPhe(m-CN)--C10 H16.HCl] |  |  | 
11 | < 500 | < 500 | < 50000 | CC(=O)NC(Cc1ccccc1)C(=O)N1CCCC1C(=O)NC(Cc1cccc(C#N)c1)B1OC2CC3CC(C3(C)C)C2(C)O1 (stereo not drawn) [Example 11, Ac--(D)Phe--Pro--boroPhe--(m-CN)--C10 H16] | 0.60 |  | 
12 | < 500 |  | < 500 | CNC(Cc1ccccc1)C(=O)N1CCCC1C(=O)NC(Cc1cccc(C#N)c1)B1OC2CC3CC(C3(C)C)C2(C)O1 (stereo not drawn) [Example 25, N--CH3 --(D)Phe--Pro--boroPhe(m-CN)--C10 H16.HCl] |  |  | 
13 | < 500 |  |  | CCCCS(=O)(=O)NC(Cc1ccccc1)C(=O)N1CCCC1C(=O)NC(CCCNC=N)B(O)O.Cl (stereo not drawn) [Example 66, CH3 (CH2)3 SO2 --(D)Phe--Pro--boroOrn(CH=NH)--OH.HCl] |  | effective | 
14 | < 500 |  |  | CC(=O)NC(Cc1ccccc1)C(=O)N1CCCC1C(=O)NC(CCCNC=N)B1OC2CC3CC(C3(C)C)C2(C)O1.Cl (stereo not drawn) [Example 3, Ac--(D)Phe--Pro--boroOrn(CH=NH)]--C10 H16.HCl] | 0.25 |  | 
15 |  |  |  | Cl.N=CNCCCC(NC(=O)C1CCCN1C(=O)C(Cc1ccccc1)NC(=O)OCc1ccccc1)B(O)O (stereo not drawn) [Example 77, Z--(D)Phe--Pro--boroOrn(CH=NH)--OH.HCl] |  |  | effective
16 | < 500 | < 500 | < 50000 | N=CNCCCC(NC(=O)C1CCCN1C(=O)CCc1ccccc1)B(O)O (stereo not drawn) [Example 48] |  |  | 
17 | < 500 |  | < 500 | Boc--(D)Thiazolylalanine-Pro--boroPhe(m-CN)--C10 H16 [Example 27] |  |  | 
18 | < 500 | < 500 | < 500 | CC1(C)C2CC3OB(C(Cc4cccc(C#N)c4)NC(=O)[C@@H]4CCCN4C(=O)[C@@H](Cc4ccccn4)NS(C)(=O)=O)OC3(C)C1C2 (stereo partly drawn) [Example 39, Ms--(D)2-Pyridylalanine-Pro--boroPhe(m-CN)--C10 H16] |  |  | 
19 | < 500 |  | < 500 | CC(C)(C)OC(=O)N[C@H](Cc1cccnc1)C(=O)N1CCCC1C(=O)NC(Cc1cccc(C#N)c1)B1OC2CC3CC(C3(C)C)C2(C)O1 (stereo partly drawn) [Example 28, Boc--(D)3-Pyridylalanine-Pro--boroPhe--(m-CN)-C10 H16] |  |  | 
20 | < 500 | < 500 | < 50000 | CC1(C)C2CC3OB(C(Cc4cccc(C#N)c4)NC(=O)[C@@H]4CCCN4C(=O)[C@H](N)Cc4ccccn4)OC3(C)C1C2 (stereo partly drawn) [Example 37, H--(D)2-Pyridylalanine-Pro--boroPhe(m-CN)--C10 H16.HCl] |  |  | 
21 | < 500 |  | < 50000 | CC1(C)C2CC3OB(C(CCCNC(N)=O)NC(=O)C4CCCN4C(=O)C(Cc4ccccc4)NS(=O)(=O)Cc4ccccc4)OC3(C)C1C2 (stereo not drawn) [Example 110, PhCH2 SO2 --(D)Phe--Pro--boroOrn(CONH2)--C10 H16] |  |  | 
22 | < 500 | < 500 | < 500 | CC1(C)C2CC3OB(C(Cc4cccc(C#N)c4)NC(=O)C4CCCN4C(=O)C(Cc4cccs4)NS(C)(=O)=O)OC3(C)C1C2 (stereo not drawn) [Example 40, Ms--(D)2-Thienylalanine-Pro--boroPhe(m-CN)--C10 H16] |  |  | 
23 | < 500 |  |  | CS(=O)(=O)N[C@H](Cc1ccccc1)C(=O)N1CCC[C@H]1C(=O)N[C@@H](CCCNC=N)B(O)O.Cl [Example 57, Ms--(D)Phe--Pro--boroOrn(CH=NH)--OH.HCl] |  | effective | effective
24 | < 500 |  |  | CC(=O)NC(Cc1ccccc1)C(=O)N1CCCC1C(=O)NC(Cc1cccc(C(=N)N)c1)B1OC2CC3CC(C3(C)C)C2(C)O1.O=S(=O)(O)c1ccccc1 (stereo not drawn) [Example 12, Ac--(D)Phe--Pro--boroPhe--(m-C(NH)NH2)--C10 H16.BSA] | 0.85 |  | 
25 | < 500 |  | < 500 | Ms--(D)Phe--Pro--boroPhe(m-CN)--OH.HCl [Example 24] |  |  | 
26 | < 500 |  | < 500 | CC1(C)C2CC3OB(C(Cc4cccc(C#N)c4)NC(=O)C4CCCN4C(=O)C(N)Cc4cccnc4)OC3(C)C1C2 (stereo not drawn) [Example 30, H--(D)3-Pyridylalanine-Pro--boroPhe(m-CN)--C10 H16.HCl] |  |  | 
27 | < 500 |  | < 500 | CC1(C)C2CC3OB(C(Cc4cccc(C#N)c4)NC(=O)C4CCCN4C(=O)[C@@H](Cc4cccnc4)NS(C)(=O)=O)OC3(C)C1C2 (stereo partly drawn) [Example 32, Ms--(D)3-Pyridylalanine-Pro--boroPhe(m-CN)--C10 H16] |  |  | 
28 | < 500 |  |  | Ms--(D)Phe--Pro--boroArg(CH3)--OH.HCl [Example 56] |  | effective | 
29 | < 500 | < 500 | < 50000 | CC(=O)N[C@H](Cc1ccccc1)C(=O)N1CCC[C@H]1C(=O)N[C@@H](Cc1cccc(C#N)c1)B(O)O [Example 23, Ac--(D)Phe--Pro--boroPhe--(m-CN)--OH.HCl] |  |  | 
30 | < 500 | < 50000 |  | COCCCC(NC(=O)C1CCCN1C(=O)C(Cc1ccccc1)NCC(=O)O)B1OC2CC3CC(C3(C)C)C2(C)O1 (stereo not drawn) [Example 140, HO2 CCH2 --(D)--Phe--Pro--boroGly[(CH2)3 --OCH3]--C10 H16] |  |  | 
